Measurements from PubChem BioAssay (NCI).
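Where inhibition never reached the appropriate level, the endpoint shown equals the highest concentration tested. Otherwise, values were interpolated linearly from a five-concentration, 48-hour dose response in 96-well plates. Here, GI50 denotes the concentration required for 50% inhibition of growth. TGI denotes the concentration required for complete inhibition of growth.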

Tests used:
Test in all cases: growth of human tumour cells (NCI), 48 h
786-0 renal = tested on: 786-0 renal
A498 renal = tested on: A498 renal
A549 NSCLC = tested on: A549 NSCLC
ACHN renal = tested on: ACHN renal
CCRF-CEM leukemia = tested on: CCRF-CEM leukemia
COLO 205 colon = tested on: COLO 205 colon
DLD-1 colon = tested on: DLD-1 colon
DMS 114 small cell lung = tested on: DMS 114 small cell lung
DMS 273 small cell lung = tested on: DMS 273 small cell lung
EKVX NSCLC = tested on: EKVX NSCLC
HCT-116 colon = tested on: HCT-116 colon
HCT-15 colon = tested on: HCT-15 colon
HL-60(TB) leukemia = tested on: HL-60(TB) leukemia
HOP-92 NSCLC = tested on: HOP-92 NSCLC
HT29 colon = tested on: HT29 colon
IGROV1 ovarian = tested on: IGROV1 ovarian
K-562 leukemia = tested on: K-562 leukemia
KM12 colon = tested on: KM12 colon
KM20L2 colon = tested on: KM20L2 colon
LOX IMVI melanoma = tested on: LOX IMVI melanoma
LXFL 529 NSCLC = tested on: LXFL 529 NSCLC
M14 melanoma = tested on: M14 melanoma
M19-MEL melanoma = tested on: M19-MEL melanoma
MALME-3M melanoma = tested on: MALME-3M melanoma
MOLT-4 leukemia = tested on: MOLT-4 leukemia
NCI-H23 lung = tested on: NCI-H23 lung
NCI-H460 lung = tested on: NCI-H460 lung
NCI-H522 lung = tested on: NCI-H522 lung
OVCAR-3 ovarian = tested on: OVCAR-3 ovarian
OVCAR-4 ovarian = tested on: OVCAR-4 ovarian
OVCAR-5 ovarian = tested on: OVCAR-5 ovarian
OVCAR-8 ovarian = tested on: OVCAR-8 ovarian
RPMI-8226 leukemia = tested on: RPMI-8226 leukemia
SF-268 CNS = tested on: SF-268 CNS
SF-539 CNS = tested on: SF-539 CNS
SK-MEL-2 melanoma = tested on: SK-MEL-2 melanoma
SK-MEL-28 melanoma = tested on: SK-MEL-28 melanoma
SK-MEL-5 melanoma = tested on: SK-MEL-5 melanoma
SK-OV-3 ovarian = tested on: SK-OV-3 ovarian
SN12C renal = tested on: SN12C renal
SNB-19 CNS = tested on: SNB-19 CNS
SNB-75 CNS = tested on: SNB-75 CNS
SNB-78 CNS = tested on: SNB-78 CNS
SW-620 colon = tested on: SW-620 colon
TK-10 renal = tested on: TK-10 renal
U251 CNS = tested on: U251 CNS
UACC-257 melanoma = tested on: UACC-257 melanoma
UACC-62 melanoma = tested on: UACC-62 melanoma
UO-31 renal = tested on: UO-31 renal
CAKI-1 renal = tested on: CAKI-1 renal
HCC-2998 colon = tested on: HCC-2998 colon
HOP-62 NSCLC = tested on: HOP-62 NSCLC
NCI-H226 lung = tested on: NCI-H226 lung
RXF 393 renal = tested on: RXF 393 renal
SF-295 CNS = tested on: SF-295 CNS
SR leukemia = tested on: SR leukemia

What does the source list for [Co+2].[O-]c1ccccc1C=NCc1ccccc1.[O-]c1ccccc1C=NCc1ccccc1?
GI50 (786-0 renal): 34.7 µM; TGI (786-0 renal): > 100 µM; GI50 (A498 renal): > 100 µM; TGI (A498 renal): > 100 µM; GI50 (A549 NSCLC): > 100 µM; TGI (A549 NSCLC): > 100 µM; GI50 (ACHN renal): 31.8 µM; TGI (ACHN renal): > 100 µM; GI50 (CCRF-CEM leukemia): 6.92 µM; TGI (CCRF-CEM leukemia): > 100 µM; GI50 (COLO 205 colon): 91.5 µM; TGI (COLO 205 colon): > 100 µM; GI50 (DLD-1 colon): 38.8 µM; TGI (DLD-1 colon): > 100 µM; GI50 (DMS 114 small cell lung): 28.7 µM; TGI (DMS 114 small cell lung): > 100 µM; GI50 (DMS 273 small cell lung): 95.8 µM; TGI (DMS 273 small cell lung): > 100 µM; GI50 (EKVX NSCLC): 56.6 µM; TGI (EKVX NSCLC): > 100 µM; GI50 (HCT-116 colon): 10.6 µM; TGI (HCT-116 colon): > 100 µM; GI50 (HCT-15 colon): 26.3 µM; TGI (HCT-15 colon): > 100 µM; GI50 (HL-60(TB) leukemia): 7.85 µM; TGI (HL-60(TB) leukemia): 82.1 µM; GI50 (HOP-92 NSCLC): 11.1 µM; TGI (HOP-92 NSCLC): 92.4 µM; GI50 (HT29 colon): 82.6 µM; TGI (HT29 colon): > 100 µM; GI50 (IGROV1 ovarian): 64.6 µM; TGI (IGROV1 ovarian): > 100 µM; GI50 (K-562 leukemia): 32.8 µM; TGI (K-562 leukemia): > 100 µM; GI50 (KM12 colon): 67.8 µM; TGI (KM12 colon): > 100 µM; GI50 (KM20L2 colon): > 100 µM; TGI (KM20L2 colon): > 100 µM; GI50 (LOX IMVI melanoma): 77.2 µM; TGI (LOX IMVI melanoma): > 100 µM; GI50 (LXFL 529 NSCLC): 17.2 µM; TGI (LXFL 529 NSCLC): > 100 µM; GI50 (M14 melanoma): 28.3 µM; TGI (M14 melanoma): > 100 µM; GI50 (M19-MEL melanoma): 39.8 µM; TGI (M19-MEL melanoma): > 100 µM; GI50 (MALME-3M melanoma): 21.1 µM; TGI (MALME-3M melanoma): > 100 µM; GI50 (MOLT-4 leukemia): 6.37 µM; TGI (MOLT-4 leukemia): > 100 µM; GI50 (NCI-H23 lung): 51.1 µM; TGI (NCI-H23 lung): > 100 µM; GI50 (NCI-H460 lung): > 100 µM; TGI (NCI-H460 lung): > 100 µM; GI50 (NCI-H522 lung): 45.7 µM; TGI (NCI-H522 lung): > 100 µM; GI50 (OVCAR-3 ovarian): 8.06 µM; TGI (OVCAR-3 ovarian): > 100 µM; GI50 (OVCAR-4 ovarian): 53.8 µM; TGI (OVCAR-4 ovarian): > 100 µM; GI50 (OVCAR-5 ovarian): 62.7 µM; TGI (OVCAR-5 ovarian): > 100 µM; GI50 (OVCAR-8 ovarian): 99.2 µM; TGI (OVCAR-8 ovarian): > 100 µM; GI50 (RPMI-8226 leukemia): 31.6 µM; TGI (RPMI-8226 leukemia): > 100 µM; GI50 (SF-268 CNS): 11.6 µM; TGI (SF-268 CNS): > 100 µM; GI50 (SF-539 CNS): 16.3 µM; TGI (SF-539 CNS): > 100 µM; GI50 (SK-MEL-2 melanoma): 55.7 µM; TGI (SK-MEL-2 melanoma): > 100 µM; GI50 (SK-MEL-28 melanoma): 6.9 µM; TGI (SK-MEL-28 melanoma): > 100 µM; GI50 (SK-MEL-5 melanoma): 33.7 µM; TGI (SK-MEL-5 melanoma): > 100 µM; GI50 (SK-OV-3 ovarian): > 100 µM; TGI (SK-OV-3 ovarian): > 100 µM; GI50 (SN12C renal): 80.1 µM; TGI (SN12C renal): > 100 µM; GI50 (SNB-19 CNS): 59.4 µM; TGI (SNB-19 CNS): > 100 µM; GI50 (SNB-75 CNS): 21.3 µM; TGI (SNB-75 CNS): 69.6 µM; GI50 (SNB-78 CNS): > 100 µM; TGI (SNB-78 CNS): > 100 µM; GI50 (SW-620 colon): 41.4 µM; TGI (SW-620 colon): > 100 µM; GI50 (TK-10 renal): > 100 µM; TGI (TK-10 renal): > 100 µM; GI50 (U251 CNS): 47.2 µM; TGI (U251 CNS): > 100 µM; GI50 (UACC-257 melanoma): 35.7 µM; TGI (UACC-257 melanoma): > 100 µM; GI50 (UACC-62 melanoma): 21.1 µM; TGI (UACC-62 melanoma): > 100 µM; GI50 (UO-31 renal): 17.1 µM; TGI (UO-31 renal): 82.9 µM

C=CCCCC(C#N)(c1ccccc1)N1CCCC1 (configuration not stated) was tested. Which TGI (786-0 renal) did it give?
The TGI was greater than 100 µM.

And the TGI (A498 renal)?
The TGI was greater than 100 µM.

And the TGI (A549 NSCLC)?
The TGI was greater than 100 µM.

And the TGI (ACHN renal)?
The TGI was greater than 100 µM.

And the TGI (CAKI-1 renal)?
Its TGI is greater than 100 µM.

And the TGI (CCRF-CEM leukemia)?
The TGI was greater than 100 µM.

And the TGI (COLO 205 colon)?
Its TGI is greater than 100 µM.

What about the TGI (DMS 114 small cell lung) of the same compound?
The TGI was greater than 100 µM.

What about the TGI (DMS 273 small cell lung) of the same compound?
The TGI was greater than 100 µM.

And the TGI (EKVX NSCLC)?
Its TGI is greater than 100 µM.

What about the TGI (HCC-2998 colon) of the same compound?
Its TGI is greater than 100 µM.

And the TGI (HCT-116 colon)?
Its TGI is greater than 100 µM.

What about the TGI (HCT-15 colon) of the same compound?
Its TGI is greater than 100 µM.

And the TGI (HL-60(TB) leukemia)?
Its TGI is greater than 100 µM.

And the TGI (HOP-62 NSCLC)?
The TGI was greater than 100 µM.

What about the TGI (HOP-92 NSCLC) of the same compound?
The TGI was greater than 100 µM.

What about the TGI (HT29 colon) of the same compound?
The TGI was greater than 100 µM.

What about the TGI (IGROV1 ovarian) of the same compound?
The TGI was greater than 100 µM.

And the TGI (K-562 leukemia)?
The TGI was greater than 100 µM.

And the TGI (KM12 colon)?
Its TGI is greater than 100 µM.

And the TGI (KM20L2 colon)?
The TGI was greater than 100 µM.

And the TGI (LOX IMVI melanoma)?
The TGI was greater than 100 µM.

What about the TGI (M14 melanoma) of the same compound?
The TGI was greater than 100 µM.

What about the TGI (M19-MEL melanoma) of the same compound?
The TGI was greater than 100 µM.

What about the TGI (MALME-3M melanoma) of the same compound?
Its TGI is greater than 100 µM.

What about the TGI (MOLT-4 leukemia) of the same compound?
The TGI was greater than 100 µM.

What about the TGI (NCI-H226 lung) of the same compound?
Its TGI is greater than 100 µM.

What about the TGI (NCI-H23 lung) of the same compound?
The TGI was greater than 100 µM.

And the TGI (NCI-H460 lung)?
The TGI was greater than 100 µM.

What about the TGI (NCI-H522 lung) of the same compound?
The TGI was greater than 100 µM.

What about the TGI (OVCAR-3 ovarian) of the same compound?
Its TGI is greater than 100 µM.

What about the TGI (OVCAR-4 ovarian) of the same compound?
Its TGI is greater than 100 µM.

What about the TGI (OVCAR-5 ovarian) of the same compound?
The TGI was greater than 100 µM.

What about the TGI (OVCAR-8 ovarian) of the same compound?
Its TGI is greater than 100 µM.

And the TGI (RPMI-8226 leukemia)?
Its TGI is greater than 100 µM.

And the TGI (RXF 393 renal)?
Its TGI is greater than 100 µM.

And the TGI (SF-268 CNS)?
Its TGI is greater than 100 µM.

What about the TGI (SF-295 CNS) of the same compound?
Its TGI is greater than 100 µM.

And the TGI (SF-539 CNS)?
Its TGI is greater than 100 µM.

And the TGI (SK-MEL-2 melanoma)?
The TGI was greater than 100 µM.

What about the TGI (SK-MEL-28 melanoma) of the same compound?
The TGI was greater than 100 µM.

And the TGI (SK-MEL-5 melanoma)?
The TGI was greater than 100 µM.

And the TGI (SK-OV-3 ovarian)?
Its TGI is greater than 100 µM.

What about the TGI (SN12C renal) of the same compound?
The TGI was greater than 100 µM.

And the TGI (SNB-19 CNS)?
Its TGI is greater than 100 µM.

What about the TGI (SNB-75 CNS) of the same compound?
The TGI was greater than 100 µM.

And the TGI (SNB-78 CNS)?
The TGI was greater than 100 µM.

What about the TGI (SR leukemia) of the same compound?
Its TGI is greater than 100 µM.

What about the TGI (SW-620 colon) of the same compound?
Its TGI is greater than 100 µM.

And the TGI (TK-10 renal)?
Its TGI is greater than 100 µM.

And the TGI (U251 CNS)?
The TGI was greater than 100 µM.

What about the TGI (UACC-257 melanoma) of the same compound?
The TGI was greater than 100 µM.

And the TGI (UACC-62 melanoma)?
The TGI was greater than 100 µM.

And the TGI (UO-31 renal)?
The TGI was greater than 100 µM.
